Laboratory results reported in US20240325369A1 (priority 2021, published 2024).
“And” between values parts separate entries of the source, which are not always exact repeats. Equal values may be shown once.

Tested on: metastatic castration-resistant prostate cancer (mCRPC) with DNA-repair anomalies
Description: The planned sample size was approximately 120 subjects with measurable disease who were biomarker-positive (approximately 75 subjects with DNA repair anomalies in BRCA [BRCA1 or BRCA2] and approximately 45 subjects with biallelic DNA-repair anomalies in non-BRCA [ATM, FANCA, PALB2, CHEK2, BRIP1, or HDAC2]).
Efficacy objectives were evaluated for subjects meeting the biomarker selection criteria described in the protocol. All subjects were monitored for safety during the study period, and up to 30 days after the last dose of study drug. Treatment continued until disease progression, unacceptable toxicity, death, or termination of the study by the sponsor.
Diagnosis and Main Criteria for Inclusion: The target population consisted of male subjects over the age of 18 years with mCRPC and DNA-repair anomalies (biallelic mutations and germline pathogenic mutations only for BRCA1 or BRCA2 mutations) who had received at least 1 prior taxane-based chemotherapy and at least 1 prior AR targeted therapy (second-generation or later). Subjects were asked to provide a tumor tissue sample (archival or recently collected, if available), and a blood sample for analysis of DNA-repair anomalies using a sponsor-validated assay.
Criteria for Evaluation: Efficacy assessments included chest, abdomen, and pelvis CT or MRI scans and whole-body bone scans (^99mTc) to evaluate objective response and disease progression.
The primary endpoint was ORR and summarized for the BRCA analysis set along with the 95% 2-sided exact CI. In addition, the counts and percentage of subjects in each response category (CR. PR, etc.) were tabulated. ORR in non-BRCA subjects was analyzed in the same way.
Descriptive summaries of CTC response were generated for BRCA and non-BRCA analysis sets, measurable and non-measurable subgroups and tabulated with its 2-sided 95% exact CI. Waterfall plots of percent change in CTC were also presented, showing the percentage change in CTC counts from baseline to 8 weeks, as well as maximal CTC count declines. All time to event secondary endpoints were evaluated using Kaplan-Meier method for BRCA and non-BRCA analysis sets. Median time to event and the corresponding 95% CI were provided. Descriptive summaries were provided for BRCA and non-BRCA analysis sets.
Time to degradation was determined using the following meaningful change threshold values: FACT-P Total (10-point reduction from baseline), EQ-5D-5L Index (0.09-point reduction from baseline). EQ-5D-5L VAS (10-point reduction from baseline), and BPI SF worst pain intensity item (30% reduction from baseline).
The primary endpoint was ORR, defined as the proportion of subjects with BRCA DNA-repair anomalies and measurable disease whose best response was either CR or PR as defined by RECIST 1.1 (Eisenhauer et al 2009) and who had no evidence of bone progression according to the PCWG3 criteria (Scher et al 2016).
ORR final analysis was performed approximately 6 months from Cycle 1 Day 1 of the last subject with a BRCA DNA-repair anomaly and measurable disease. Objective response as determined by investigator assessment was considered as the primary analysis.
Subjects who discontinued the study without a response assessment were considered as non-responders in the analysis. The objective response rate was calculated and its 2-sided 95% exact CI presented. In addition, the counts and percentage of subjects in each response category (CR, PR, etc.) were tabulated.
The following analyses of CTC response were performed for BRCA and non-BRCA analysis sets, measurable and non-measurable subgroups: • Descriptive summaries • CTC response rate was tabulated with its 2-sided 95% exact CI
All time to event secondary endpoints were evaluated using Kaplan-Meier method for BRCA and non-BRCA analysis sets. Median time to event and the corresponding 95% CI were provided. Descriptive summaries were provided for BRCA and non-BRCA analysis sets.

[1] = Non-BRCA (n = 81), 300 mg once daily
[2] = Non-BRCA, patients with baseline CTC ≥5 (n=60), 300 mg once daily

SMILES: NC(=O)c1cccc2cn(-c3ccc([C@@H]4CCCNC4)cc3)nc12 [Niraparib, 2-[4-[(3S)-piperidin-3-yl]phenyl]-2H-indazole-7-carboxamide]
- CRR (composite response rate), % of subjects [1]: 14.8%
- CRR (composite response rate), number of subjects [1]: 12
- PSA50 (≥50% decline in prostate-specific antigen), % of subjects [1]: 4.9%
- PSA50 (≥50% decline in prostate-specific antigen), number of subjects [1]: 4
- CTC conversion (CTC count ≥5/7.5 mL blood at baseline to <5/7.5 mL blood at nadir), % of subjects [2]: 15.0%
- CTC conversion (CTC count ≥5/7.5 mL blood at baseline to <5/7.5 mL blood at nadir), number of subjects [2]: 9
- Best Overall Response: Complete Response (CR), number of subjects (in vivo): 0
- Best Overall Response: Not Available (NA), % of subjects (in vivo): (17.0%)
- Best Overall Response: Not Available (NA), number of subjects (in vivo): 8
- Best Overall Response: Partial Response (PR), % of subjects (in vivo): (10.6%)
- Best Overall Response: Partial Response (PR), number of subjects (in vivo): 5
- Best Overall Response: Progressive Disease (PD), % of subjects (in vivo): (31.9%)
- Best Overall Response: Progressive Disease (PD), number of subjects (in vivo): 15
- Best Overall Response: Stable Disease (SD), % of subjects (in vivo): (40.4%)
- Best Overall Response: Stable Disease (SD), number of subjects (in vivo): 19
- Duration of objective response: 12-month event-free rate (in vivo): 0.000
- Objective response confirmed: Complete Response (CR), number of subjects (in vivo): 0
- Objective response confirmed: Partial Response (PR), % of subjects (in vivo): 5 (10.6%)
- Objective response confirmed: Partial Response (PR), number of subjects (in vivo): 5 (10.6%)
- Overall survival: 6-month event-free rate (in vivo): 0.841 and 0.709 and 0.793
- Overall survival: 12-month event-free rate (in vivo): 0.564 and 0.413 and 0.508
- Overall survival: 18-month event-free rate (in vivo): 0.334 and 0.198 and 0.278
- Overall survival: 24-month event-free rate (in vivo): 0.152 and 0.111 and 0.136
- Overall survival: time to event, 25th percentile (in vivo): 8.31 months and 4.86 months and 7.16 months
- Overall survival: time to event, 75th percentile (in vivo): 19.52 months and 16.53 months and 19.42 months
- Time to PSA progression: 6-month event-free rate (in vivo): 0.144
- Time to PSA progression: 24-month event-free rate (in vivo): 0.000
- Time to PSA progression: Censored, % of subjects (in vivo): (51.9%)
- Time to PSA progression: Censored, number of subjects (in vivo): 57 and 42
- Time to PSA progression: Event, % of subjects (in vivo): (48.1%)
- Time to PSA progression: time to event, 25th percentile (in vivo): 2.79 months
- Time to PSA progression: time to event, 75th percentile (in vivo): 4.63 months and 8.31 months
- Time to PSA progression: time to event, Median (in vivo): 3.65 months
- Time to radiographic progression: 6-month event-free rate (in vivo): 0.299
- Time to radiographic progression: Censored, % of subjects (in vivo): (34.6%)
- Time to radiographic progression: Censored, number of subjects (in vivo): 28
- Time to radiographic progression: Event, number of subjects (in vivo): 53
- Time to radiographic progression: time to event, 25th percentile (in vivo): 1.87 months
- Time to radiographic progression: time to event, 75th percentile (in vivo): 8.11 months
- Time to symptomatic skeletal event (SSE): time to event, Median (in vivo): 10.35 months
- Time to symptomatic skeletal event: 6-month event-free rate (in vivo): 0.792
- Time to symptomatic skeletal event: 12-month event-free rate (in vivo): 0.379
- Time to symptomatic skeletal event: 18-month event-free rate (in vivo): 0.190
- Time to symptomatic skeletal event: Censored, % of subjects (in vivo): (76.5%)
- Time to symptomatic skeletal event: Censored, number of subjects (in vivo): 62
- Time to symptomatic skeletal event: time to event, 25th percentile (in vivo): 6.51 months
- Time to symptomatic skeletal event: time to event, 75th percentile (in vivo): 15.54 months
- rPFS: 6-month event-free rate (in vivo): 0.289
- rPFS: Censored, % of subjects (in vivo): (29.6%)
- rPFS: Censored, number of subjects (in vivo): 24
- rPFS: Event, % of subjects (in vivo): (70.4%)
- rPFS: Event, number of subjects (in vivo): 57
- rPFS: time to event, 25th percentile (in vivo): 1.87 months
- rPFS: time to event, 75th percentile (in vivo): 6.47 months
